Measurements reported in patent US20060154243A1 (priority 2003, published 2006).

Columns and labels:
[1] = test system: serum 1a (individual 1, early serum); type: binding, human
[2] = test system: serum 1b (individual 1, late serum); type: binding, human
serum 2 (individual 2) = type: binding, human
serum 6 (individual 6) = type: binding, human
serum 37 (individual 37) = type: binding, human
serum 62 (individual 62) = type: binding, human
serum London = type: binding, human
serum SARS-yellow = type: binding, human
serum SARS-green = type: binding, human
[3] = test system: control serum LUMC (pooled serum of ten healthy hospital workers); type: binding, human
[4] = test system: control serum Blood-bank (commercial negative donor pooled serum); type: binding, human
[5] = test system: rabbit serum obtained by immunizing with SARS-CoV strain Frankfurt 1; type: binding
[6] = test system: sera SARS-green, SARS-yellow, 1a, 1b, 2, 6, 37, 62 and London; type: binding, human

Sequence: REAEAAVKPLLAPHH
- Binding of serum 1a to linear peptides of Orf14 of SARS-CoV TOR2 [1]: 0.5
- Binding of serum 1b to linear peptides of Orf14 of SARS-CoV TOR2 [2]: 0.3
- Binding of serum 2 to linear peptides of Orf14 of SARS-CoV TOR2 (serum 2 (individual 2)): 0.4
- Binding of serum 6 to linear peptides of Orf14 of SARS-CoV TOR2 (serum 6 (individual 6)): 0.3
- Binding of serum 37 to linear peptides of Orf14 of SARS-CoV TOR2 (serum 37 (individual 37)): 0.5
- Binding of serum 62 to linear peptides of Orf14 of SARS-CoV TOR2 (serum 62 (individual 62)): 0.3
- Binding of serum London to linear peptides of Orf14 of SARS-CoV TOR2 (serum London): 0.4
- Binding of serum SARS-yellow to linear peptides of Orf14 of SARS-CoV TOR2 (serum SARS-yellow): 0.2
- Binding of serum SARS-green to linear peptides of Orf14 of SARS-CoV TOR2 (serum SARS-green): 0.1
- Control serum LUMC linear peptides [3]: 0.3
- Control serum LUMC looped peptides [3]: 0.6
- Control Serum Blood-Bank Looped peptides [4]: 0.7
- Control serum Blood-bank linear peptides [4]: 0.2

Sequence: EILLLEWLAEVVKLP
- Binding of serum 1a to linear peptides of Orf14 of SARS-CoV TOR2 [1]: 0.5
- Binding of serum 1b to linear peptides of Orf14 of SARS-CoV TOR2 [2]: 0.5
- Binding of serum 2 to linear peptides of Orf14 of SARS-CoV TOR2 (serum 2 (individual 2)): 0.5
- Binding of serum 6 to linear peptides of Orf14 of SARS-CoV TOR2 (serum 6 (individual 6)): 0.7
- Binding of serum 37 to linear peptides of Orf14 of SARS-CoV TOR2 (serum 37 (individual 37)): 0.6
- Binding of serum 62 to linear peptides of Orf14 of SARS-CoV TOR2 (serum 62 (individual 62)): 0.5
- Binding of serum London to linear peptides of Orf14 of SARS-CoV TOR2 (serum London): 0.7
- Binding of serum SARS-yellow to linear peptides of Orf14 of SARS-CoV TOR2 (serum SARS-yellow): 0.4
- Binding of serum SARS-green to linear peptides of Orf14 of SARS-CoV TOR2 (serum SARS-green): 0.4
- Control serum LUMC linear peptides [3]: 0.6
- Control serum LUMC looped peptides [3]: 0.6
- Control Serum Blood-Bank Looped peptides [4]: 0.7
- Control serum Blood-bank linear peptides [4]: 0.7

Sequence: ILLLEWLAEVVKLPS
- Binding of serum 1a to linear peptides of Orf14 of SARS-CoV TOR2 [1]: 0.5
- Binding of serum 1b to linear peptides of Orf14 of SARS-CoV TOR2 [2]: 0.4
- Binding of serum 2 to linear peptides of Orf14 of SARS-CoV TOR2 (serum 2 (individual 2)): 0.5
- Binding of serum 6 to linear peptides of Orf14 of SARS-CoV TOR2 (serum 6 (individual 6)): 0.5
- Binding of serum 37 to linear peptides of Orf14 of SARS-CoV TOR2 (serum 37 (individual 37)): 0.6
- Binding of serum 62 to linear peptides of Orf14 of SARS-CoV TOR2 (serum 62 (individual 62)): 0.4
- Binding of serum London to linear peptides of Orf14 of SARS-CoV TOR2 (serum London): 0.5
- Binding of serum SARS-yellow to linear peptides of Orf14 of SARS-CoV TOR2 (serum SARS-yellow): 0.3
- Binding of serum SARS-green to linear peptides of Orf14 of SARS-CoV TOR2 (serum SARS-green): 0.1
- Control serum LUMC linear peptides [3]: 0.5
- Control serum LUMC looped peptides [3]: 0.6
- Control Serum Blood-Bank Looped peptides [4]: 0.7
- Control serum Blood-bank linear peptides [4]: 0.6

Sequence: AEAAVKPLLAPHHVV
- Binding of serum 1a to linear peptides of Orf14 of SARS-CoV TOR2 [1]: 0.7
- Binding of serum 1b to linear peptides of Orf14 of SARS-CoV TOR2 [2]: 0.5
- Binding of serum 2 to linear peptides of Orf14 of SARS-CoV TOR2 (serum 2 (individual 2)): 1.3
- Binding of serum 6 to linear peptides of Orf14 of SARS-CoV TOR2 (serum 6 (individual 6)): 0.6
- Binding of serum 37 to linear peptides of Orf14 of SARS-CoV TOR2 (serum 37 (individual 37)): 0.8
- Binding of serum 62 to linear peptides of Orf14 of SARS-CoV TOR2 (serum 62 (individual 62)): 0.8
- Binding of serum London to linear peptides of Orf14 of SARS-CoV TOR2 (serum London): 0.8
- Binding of serum SARS-yellow to linear peptides of Orf14 of SARS-CoV TOR2 (serum SARS-yellow): 0.8
- Binding of serum SARS-green to linear peptides of Orf14 of SARS-CoV TOR2 (serum SARS-green): 0.8
- Control serum LUMC linear peptides [3]: 1.0
- Control serum LUMC looped peptides [3]: 0.6
- Control Serum Blood-Bank Looped peptides [4]: 0.6
- Control serum Blood-bank linear peptides [4]: 0.8

Sequence: MLPPCYNFLKEQHCQ
- Binding of serum 1a to linear peptides of Orf14 of SARS-CoV TOR2 [1]: 0.4
- Binding of serum 1b to linear peptides of Orf14 of SARS-CoV TOR2 [2]: 0.4
- Binding of serum 2 to linear peptides of Orf14 of SARS-CoV TOR2 (serum 2 (individual 2)): 0.3
- Binding of serum 6 to linear peptides of Orf14 of SARS-CoV TOR2 (serum 6 (individual 6)): 0.5
- Binding of serum 37 to linear peptides of Orf14 of SARS-CoV TOR2 (serum 37 (individual 37)): 0.5
- Binding of serum 62 to linear peptides of Orf14 of SARS-CoV TOR2 (serum 62 (individual 62)): 0.3
- Binding of serum London to linear peptides of Orf14 of SARS-CoV TOR2 (serum London): 0.4
- Binding of serum SARS-yellow to linear peptides of Orf14 of SARS-CoV TOR2 (serum SARS-yellow): 0.2
- Binding of serum SARS-green to linear peptides of Orf14 of SARS-CoV TOR2 (serum SARS-green): 0.2
- Control serum LUMC linear peptides [3]: 0.5
- Control serum LUMC looped peptides [3]: 0.6
- Control Serum Blood-Bank Looped peptides [4]: 0.7
- Control serum Blood-bank linear peptides [4]: 0.4

Sequence: LLAPHHVVAVIQEIQ
- Binding of serum 1a to linear peptides of Orf14 of SARS-CoV TOR2 [1]: 0.5
- Binding of serum 1b to linear peptides of Orf14 of SARS-CoV TOR2 [2]: 0.5
- Binding of serum 2 to linear peptides of Orf14 of SARS-CoV TOR2 (serum 2 (individual 2)): 0.5
- Binding of serum 6 to linear peptides of Orf14 of SARS-CoV TOR2 (serum 6 (individual 6)): 0.5
- Binding of serum 37 to linear peptides of Orf14 of SARS-CoV TOR2 (serum 37 (individual 37)): 0.6
- Binding of serum 62 to linear peptides of Orf14 of SARS-CoV TOR2 (serum 62 (individual 62)): 0.5
- Binding of serum London to linear peptides of Orf14 of SARS-CoV TOR2 (serum London): 0.5
- Binding of serum SARS-yellow to linear peptides of Orf14 of SARS-CoV TOR2 (serum SARS-yellow): 0.5
- Binding of serum SARS-green to linear peptides of Orf14 of SARS-CoV TOR2 (serum SARS-green): 0.3
- Control serum LUMC linear peptides [3]: 0.6
- Control serum LUMC looped peptides [3]: 0.8
- Control Serum Blood-Bank Looped peptides [4]: 0.8
- Control serum Blood-bank linear peptides [4]: 0.4

Sequence: HVVAVIQEIQLLAAV
- Binding of serum 1a to linear peptides of Orf14 of SARS-CoV TOR2 [1]: 0.5
- Binding of serum 1b to linear peptides of Orf14 of SARS-CoV TOR2 [2]: 0.4
- Binding of serum 2 to linear peptides of Orf14 of SARS-CoV TOR2 (serum 2 (individual 2)): 0.5
- Binding of serum 6 to linear peptides of Orf14 of SARS-CoV TOR2 (serum 6 (individual 6)): 0.4
- Binding of serum 37 to linear peptides of Orf14 of SARS-CoV TOR2 (serum 37 (individual 37)): 0.6
- Binding of serum 62 to linear peptides of Orf14 of SARS-CoV TOR2 (serum 62 (individual 62)): 0.3
- Binding of serum London to linear peptides of Orf14 of SARS-CoV TOR2 (serum London): 0.4
- Binding of serum SARS-yellow to linear peptides of Orf14 of SARS-CoV TOR2 (serum SARS-yellow): 0.4
- Binding of serum SARS-green to linear peptides of Orf14 of SARS-CoV TOR2 (serum SARS-green): 0.1
- Control serum LUMC linear peptides [3]: 0.5
- Control serum LUMC looped peptides [3]: 0.4
- Control Serum Blood-Bank Looped peptides [4]: 0.6
- Control serum Blood-bank linear peptides [4]: 0.4

Sequence: LLLEWLAEVVKLPSR
- Binding of serum 1a to linear peptides of Orf14 of SARS-CoV TOR2 [1]: 0.5
- Binding of serum 1b to linear peptides of Orf14 of SARS-CoV TOR2 [2]: 0.4
- Binding of serum 2 to linear peptides of Orf14 of SARS-CoV TOR2 (serum 2 (individual 2)): 0.4
- Binding of serum 6 to linear peptides of Orf14 of SARS-CoV TOR2 (serum 6 (individual 6)): 0.6
- Binding of serum 37 to linear peptides of Orf14 of SARS-CoV TOR2 (serum 37 (individual 37)): 0.7
- Binding of serum 62 to linear peptides of Orf14 of SARS-CoV TOR2 (serum 62 (individual 62)): 0.4
- Binding of serum London to linear peptides of Orf14 of SARS-CoV TOR2 (serum London): 0.6
- Binding of serum SARS-yellow to linear peptides of Orf14 of SARS-CoV TOR2 (serum SARS-yellow): 0.2
- Binding of serum SARS-green to linear peptides of Orf14 of SARS-CoV TOR2 (serum SARS-green): 0.3
- Control serum LUMC linear peptides [3]: 0.5
- Control serum LUMC looped peptides [3]: 0.5
- Control Serum Blood-Bank Looped peptides [4]: 0.7
- Control serum Blood-bank linear peptides [4]: 0.7

Sequence: LLEWLAEVVKLPSRY
- Binding of serum 1a to linear peptides of Orf14 of SARS-CoV TOR2 [1]: 0.5
- Binding of serum 1b to linear peptides of Orf14 of SARS-CoV TOR2 [2]: 0.4
- Binding of serum 2 to linear peptides of Orf14 of SARS-CoV TOR2 (serum 2 (individual 2)): 0.3
- Binding of serum 6 to linear peptides of Orf14 of SARS-CoV TOR2 (serum 6 (individual 6)): 0.5
- Binding of serum 37 to linear peptides of Orf14 of SARS-CoV TOR2 (serum 37 (individual 37)): 0.5
- Binding of serum 62 to linear peptides of Orf14 of SARS-CoV TOR2 (serum 62 (individual 62)): 0.4
- Binding of serum London to linear peptides of Orf14 of SARS-CoV TOR2 (serum London): 0.4
- Binding of serum SARS-yellow to linear peptides of Orf14 of SARS-CoV TOR2 (serum SARS-yellow): 0.3
- Binding of serum SARS-green to linear peptides of Orf14 of SARS-CoV TOR2 (serum SARS-green): 0.1
- Control serum LUMC linear peptides [3]: 0.4
- Control serum LUMC looped peptides [3]: 0.6
- Control Serum Blood-Bank Looped peptides [4]: 0.6
- Control serum Blood-bank linear peptides [4]: 0.5

Sequence: WFSLEIQDLEEPCTK
- Control serum LUMC linear peptides [3]: 0.5
- Control serum LUMC looped peptides [3]: 0.5
- Control Serum Blood-Bank Looped peptides [4]: 0.7
- Control serum Blood-bank linear peptides [4]: 0.6
- Rabbit serum linear peptides [5]: 0.0
- Rabbit serum looped peptides [5]: 0.4
- Recognition of the peptide by sera of individuals infected by SARS-CoV, form recognized [6]: recognized in linear and in looped form

Sequence: IIFWFSLEIQDLEEP
- Control serum LUMC linear peptides [3]: 0.7
- Control serum LUMC looped peptides [3]: 0.8
- Control Serum Blood-Bank Looped peptides [4]: 0.9
- Control serum Blood-bank linear peptides [4]: 0.9
- Rabbit serum linear peptides [5]: 0.4
- Rabbit serum looped peptides [5]: 0.0
- Recognition of the peptide by sera of individuals infected by SARS-CoV, form recognized [6]: recognized in linear and in looped form

Sequence: IMLIIFWFSLEIQDL
- Control serum LUMC linear peptides [3]: 0.7
- Control serum LUMC looped peptides [3]: 0.4
- Control Serum Blood-Bank Looped peptides [4]: 0.6
- Control serum Blood-bank linear peptides [4]: 0.8
- Rabbit serum linear peptides [5]: 0.9
- Rabbit serum looped peptides [5]: 0.1
- Recognition of the peptide by sera of individuals infected by SARS-CoV, form recognized [6]: recognized in linear and in looped form

Sequence: LIMLIIFWFSLEIQD
- Control serum LUMC linear peptides [3]: 1.1
- Control serum LUMC looped peptides [3]: 0.7
- Control Serum Blood-Bank Looped peptides [4]: 0.7
- Control serum Blood-bank linear peptides [4]: 0.9
- Rabbit serum linear peptides [5]: 0.4
- Rabbit serum looped peptides [5]: 0.6
- Recognition of the peptide by sera of individuals infected by SARS-CoV, form recognized [6]: recognized in linear and in looped form
